# In patent US20090156646A1, “PYRIDYLPHENOL COMPOUND AND USE THEREOF” (TAKEDA PHARMACEUTICAL COMPANY LIMITED, priority 2005, published 2009):
# pIC50: −log10 of the molar value. Where a name gives a salt, the structure may show the parent alone.
# Target: T1, human metastin receptor hOT7T175 (Homo sapiens, UniProt Q969F8, L364H)
# T1 construct: encoding the entire length of human metastin receptor hOT7T175; expressed in transfected cells; host or cells: CHO/dhFr- cells (ATCC #CRL-9096) stably transfected with pAKKO-hOT7T175; clone h175-16 was used as whole cells for FLIPR
# Test: binding inhibiting activity: 125I-metastin (40-54) binding to cell membrane fraction of h175 KB34 cells
# Settings: room temperature 60 minutes, read-out: binding inhibiting activity, represented by the IC50 value
# Procedure: cDNA fragments (SEQ ID NO: 2) encoding the entire length of human metastin receptor hOT7T175 were incorporated into expression vector pAKKO1.11H to produce animal cell expression plasmids pAKKO-hOT7T175. CHO/dhFr-cells (ATCC, #CRL-9096) were seeded onto 6 cm culture dishes (Becton Dickinson) at a density of 0.3×10^6 cells/dish, and cultured in the conditions of 48 hours, 37° C. and 5% CO2. 5 μg pAKKO-hOT7T175 plasmid DNA was transfected to the resultant cells by a known method (described in Example 3 of WO 00/24890) using the Cellphect Transfection Kit (Amersham, #27-9268-01). The DNA-transfected cells were cultured in the Dulbecco's modified Eagle medium (DMEM) (Sigma, #D6046) containing 10% dialyzed FBS (Biowest, #S180D), 1× Non-Essential Amino Acid (Invitrogen, #11140-050) and 50 μg/ml Gentamycin (Invitrogen, #15750-060; and cell strains stably expressing the plasmid genes were selected. The obtained 41 clones were treated with the FLIPR assay (in accordance with the method described in Example 3 of WO 00/24890), and the reactivity to the human metastin […] (Nos. 40 to 54 of the human metastin sequence; Peptide Institute, Inc., #4389-v) was evaluated. In the end, h175 KB34 cell strains were selected. By substantially the same method, h175-16 cell strains were also produced.
# The h175 KB34 cells were cultured to be on the stage of 40-50% confluency using a cell factory (Nunc, #164327), and then cells were recovered in the following method.
# First, the medium was disposed, and the cells were washed twice with 200 ml EDTA/PBS(−). Another 200 ml of EDTA/PBS(−) was added, and the cells were kept still for 20 minutes at room temperature until being peeled off. The cells were recovered into four 50 ml tubes (Becton Dickinson, #352070), and centrifuged (2,000 rpm, 10 min., 4° C.) by a reduced performance centrifuge (TOMY, RL-101). The supernatant was disposed, and the pellets in the four tubes were each suspended with 10 ml EDTA/PBS(−) and collected into one tube (Becton Dickinson, #352070). The pellet was further centrifuged (2,000 rpm, 10 min., 4° C.). The resultant pellet was suspended with 20 ml ice-cooled homogenizer buffer [10 mM NaHCO3, 2 mM EGTA, 0.2 mM magnesium acetate, 10 μg/ml Leupeptin (Peptide Institute, Inc., #4041), 10 μg/ml E-64 (Peptide Institute, Inc., # 4096), 100 μg/ml o-phenanthroline (Dojindo Laboratories), 90 μg/ml PMSF (Wako Pure Chemical Industries, Ltd.), 10 μg/ml Pepstatin A (Peptide Institute, Inc., #4397), pH7.3]. The cell suspension was homogenized 3 times, each for 30 seconds, using a Polytron homogenizer. The resultant homogenate was centrifuged (2,500 rpm, 10 min, 4° C.) using a high performance refrigerated centrifuge (Hitachi, Ltd., CR26H). The supernatant was recovered into a super-centrifuge tube, and super-centrifuged (30,000 rpm, 60 min, 4° C.) using a super-centrifuge (Hitachi, Ltd., SCP70H). 3 ml homogenizer buffer was added to the resultant pellet, and the pellet was suspended by pipetting. 3 ml glycerol (Wako Pure Chemical Industries, Ltd.) was added to the resultant suspension and diluted 2-folds. The resultant substance was used as a cell membrane fraction of the h175 KB34 cells. Each […] of the membrane fraction was put into a 1.5 ml tube (Eppendorf, #0030120.086), stored in a freezer (−30 C) so as not to be frozen, and used for a binding assay.
# An assay buffer was prepared on the day of the test by adding, to each 100 ml of an assay basic buffer [20 mM Tris, 2.5 mM Magnesium Acetate, 2 mM EGTA, pH 7.4], 1 mg Leupeptin (Peptide Institute, Inc., 4041), 1 mg E-64 (Peptide Institute, Inc., 4096), 10 mg o-phenanthroline (Dojindo Laboratories), 9 mg PMSF (Wako Pure Chemical Industries, Ltd.) and 1 mg Pepstatin A (Peptide Institute, Inc., 4397). The prepared assay buffer was stored at 4° C. until being used. When the measurement was to be performed with no BSA, the above-described assay buffer was used. […]
# T1 sequence (Q969F8 whole entry L364H): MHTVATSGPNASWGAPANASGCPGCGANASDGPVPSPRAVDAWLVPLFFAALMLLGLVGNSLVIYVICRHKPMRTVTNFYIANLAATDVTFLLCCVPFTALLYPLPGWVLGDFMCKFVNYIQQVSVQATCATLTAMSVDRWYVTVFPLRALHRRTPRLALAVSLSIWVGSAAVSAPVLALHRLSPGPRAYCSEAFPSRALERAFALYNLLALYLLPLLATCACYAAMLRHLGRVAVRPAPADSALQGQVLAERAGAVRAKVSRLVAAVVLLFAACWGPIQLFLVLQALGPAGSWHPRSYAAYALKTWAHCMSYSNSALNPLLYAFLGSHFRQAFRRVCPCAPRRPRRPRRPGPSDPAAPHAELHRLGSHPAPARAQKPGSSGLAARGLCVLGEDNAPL
row,Structure (SMILES),pIC50
1,"N#Cc1c(-c2cccc(NC(=O)[C@@H](N)Cc3cnc[nH]3)c2)cc(-c2ccc(Cl)cc2O)nc1NC(=O)c1ccco1 [Example 243, N-{3-[6-(4-chloro-2-hydroxyphenyl)-3-cyano-2-(2-furoylamino)pyridin-4-yl]phenyl}-L-histidinamide dihydrochloride]",≥ 5.00
2,"CC(N)CC(=O)Nc1cccc(-c2cc(-c3ccc(Cl)cc3O)nc(NC(=O)c3cccn3C)c2C#N)c1 (stereo not shown) [Example 274, N-[4-{3-[(3-aminobutanoyl)amino]phenyl}-6-(4-chloro-2-hydroxyphenyl)-3-cyanopyridin-2-yl]-1-methyl-1H-pyrrole-2-carboxamide hydrochloride]",≥ 5.00
3,"N#Cc1c(-c2cccc(NC(=O)CCN)c2)cc(-c2ccccc2O)nc1NC(=O)c1ccccc1 [Example 31, N-[4-(3-(β-alanylamino)phenyl)-3-cyano-6-(2-hydroxyphenyl)pyridin-2-yl]benzamide trifluoroacetate]",≥ 5.00
4,"N#Cc1c(-c2cccc(NC(=O)[C@H](N)Cc3c[nH]cn3)c2)cc(-c2ccc(F)cc2O)nc1NC(=O)c1ccco1 [Example 261, N-{3-[3-cyano-6-(4-fluoro-2-hydroxyphenyl)-2-(2-furoylamino)pyridin-4-yl]phenyl}-D-histidinamide hydrochloride]",≥ 5.00
5,"N#Cc1c(-c2cccc(NC(=O)CCN)c2)cc(-c2ccc(Cl)cc2O)nc1NC(=O)c1ccccc1 [Example 51, N-{4-[3-(β-alanylamino)phenyl]-6-(4-chloro-2-hydroxyphenyl)-3-cyanopyridin-2-yl}benzamide trifluoroacetate]",≥ 5.00
6,"COc1c(NC(=O)OC(C)(C)C)cccc1-c1cc(-c2ccccc2O)nc(NC(=O)c2ccco2)c1C#N [Example 275, tert-butyl{3-[3-cyano-2-(2-furoylamino)-6-(2-hydroxyphenyl)pyridin-4-yl]-2-methoxyphenyl}carbamate]",≥ 5.00
7,"C[C@H](N)CNC(=O)c1cccc(-c2cc(-c3ccc(Cl)cc3O)nc(NC(=O)c3ccno3)c2C#N)c1 [Example 268, N-[4-[3-({[(2S)-2-aminopropyl]amino}carbonyl)phenyl]-6-(4-chloro-2-hydroxyphenyl)-3-cyanopyridin-2-yl]isoxazole-5-carboxamide hydrochloride]",≥ 5.00
8,"COc1ccc(C(=O)Nc2nc(-c3ccc(Cl)cc3O)cc(-c3cccc(NC(=O)CCN)c3)c2C#N)c(OC)c1 [Example 255, N-[4-[3-(β-alanylamino)phenyl]-6-(4-chloro-2-hydroxyphenyl)-3-cyanopyridin-2-yl]-2,4-dimethoxybenzamide dihydrochloride]",≥ 5.00
9,"N#Cc1c(-c2cc(NC(=O)CCN)ccc2Cl)cc(-c2ccccc2O)nc1NC(=O)c1cccs1 [Example 42, N-{4-[5-(β-alanylamino)-2-chlorophenyl]-3-cyano-6-(2-hydroxyphenyl)pyridin-2-yl}thiophene-2-carboxamide dihydrochloride]",≥ 5.00
10,"N#Cc1c(-c2ccnc(C(=O)NCCN)c2)cc(-c2ccccc2O)nc1NC(=O)c1ccco1 [Example 272, N-(2-aminoethyl)-3′-cyano-2′-(2-furoylamino)-6′-(2-hydroxyphenyl)-4,4′-bipyridine-2-carboxamide dihydrochloride]",≥ 5.00
11,"N#Cc1c(-c2cccc(NC(=O)CCN)c2)cc(-c2cc(Cl)ccc2O)nc1NC(=O)c1cccs1 [Example 46, N-{4-[3-(β-alanylamino)phenyl]-6-(5-chloro-2-hydroxyphenyl)-3-cyanopyridin-2-yl}thiophene-2-carboxamide trifluoroacetate]",≥ 5.00

# Now from value to compound:
row,pIC50,Structure (SMILES)
1,≥ 5.00,"CNCC(=O)Nc1cccc(-c2cc(-c3ccc(F)cc3O)nc(NC(=O)c3ccco3)c2C#N)c1 [Example 312, N-(3-cyano-6-(4-fluoro-2-hydroxyphenyl)-4-{3-[(N-methylglycyl)amino]phenyl}pyridin-2-yl)-2-furamide hydrochloride]"
2,≥ 5.00,"CCCC(CC(=O)Nc1cccc(-c2cc(-c3ccc(F)cc3O)nc(NC(=O)c3ccco3)c2C#N)c1)N(CC)CC (stereo not shown) [Example 317, N-[3-cyano-4-(3-{[3-(diethylamino)hexanoyl]amino}phenyl)-6-(4-fluoro-2-hydroxyphenyl)pyridin-2-yl]-2-furamide hydrochloride]"
3,≥ 5.00,"N#Cc1c(-c2cccc(CN3CCCNCC3)c2)cc(-c2ccc(F)cc2O)nc1NC(=O)c1ccco1 [Example 335, N-[3-cyano-4-[3-(1,4-diazepan-1-ylmethyl)phenyl]-6-(4-fluoro-2-hydroxyphenyl)pyridin-2-yl]-2-furamide dihydrochloride]"
4,≥ 5.00,"CCN1CCN(Cc2cccc(-c3cc(-c4ccc(F)cc4O)nc(NC(=O)c4ccco4)c3C#N)c2)CC1 [Example 334, N-[3-cyano-4-{3-[(4-ethylpiperazin-1-yl)methyl]phenyl}-6-(4-fluoro-2-hydroxyphenyl)pyridin-2-yl]-2-furamide dihydrochloride]"
5,≥ 5.00,"CN(C)CCN(C)c1cccc(-c2cc(-c3ccc(F)cc3O)nc(NC(=O)c3ccco3)c2C#N)c1 [Example 324, N-[3-cyano-4-{3-[[2-(dimethylamino)ethyl] (methyl)amino]phenyl}-6-(4-fluoro-2-hydroxyphenyl)pyridin-2-yl]-2-furamide]"
6,≥ 5.00,"CCN1CCN(c2cccc(-c3cc(-c4ccc(F)cc4O)nc(NC(=O)c4ccco4)c3C#N)c2)CC1 [Example 330, N-[3-cyano-4-[3-(4-ethylpiperazin-1-yl)phenyl]-6-(4-fluoro-2-hydroxyphenyl)pyridin-2-yl]-2-furamide hydrochloride]"
7,≥ 5.00,"CCN(CC)CCN(CC)c1cccc(-c2cc(-c3ccc(F)cc3O)nc(NC(=O)c3ccco3)c2C#N)c1 [Example 304, N-[3-cyano-4-{3-[[2-(diethylamino)ethyl] (ethyl)amino]phenyl}-6-(4-fluoro-2-hydroxyphenyl)pyridin-2-yl]-2-furamide dihydrochloride]"
8,≥ 5.00,"CN1CCN(Cc2cccc(-c3cc(-c4ccc(F)cc4O)nc(NC(=O)c4ccco4)c3C#N)c2)CC1 [Example 333, N-(3-cyano-6-(4-fluoro-2-hydroxyphenyl)-4-{3-[(4-methylpiperazin-1-yl)methyl]phenyl}pyridin-2-yl)-2-furamide dihydrochloride]"
9,≥ 5.00,"Cl.N#Cc1c(-c2cccc(NC(=O)CC3CCCCN3)c2)cc(-c2ccc(F)cc2O)nc1NC(=O)c1ccco1 (stereo not shown) [Example 290, hydrochloride]"
10,≥ 5.00,"CNCCC(=O)Nc1cccc(-c2cc(-c3ccc(F)cc3O)nc(NC(=O)c3ccco3)c2C#N)c1 [Example 313, N-(3-cyano-6-(4-fluoro-2-hydroxyphenyl)-4-{3-[(N-methyl-β-alanyl)amino]phenyl}pyridin-2-yl)-2-furamide hydrochloride]"
11,≥ 5.00,"N#Cc1c(-c2cccc(CN3CCNCC3)c2)cc(-c2ccc(F)cc2O)nc1NC(=O)c1ccco1 [Example 325, N-{3-cyano-6-(4-fluoro-2-hydroxyphenyl)-4-[3-(piperazine-1-ylmethyl)phenyl]pyridin-2-yl}-2-furamide ditrifluoroacetic acid]"
